Where “and” joins values, the source holds several entries; their conditions need not be identical. Identical values can stand only once. Like-named read-outs stand apart in the source and are kept apart here.
Experiments:
[1] = Physical stability on storage of the 6 mg/mL formulation (F11); assay type: physicochemical; details: 80 mg/mL SBE-β-CD, […] v/v ethanol, 3.4% v/v PEG400, 6 mg/mL PF-00835231
Method: To further assess the robustness of formulations prepared in Formulation Example F10, a single formulation was selected to scale-up for use in a stability study.
An additional 20 mL solution of 300 mg/mL SBE-β-CD was similarly prepared.
14.29 mL of the citrate buffer and SBE-β-CD stock solution was then added to two separate 20 mL scintillation vials. […] The drug product solutions were mixed overnight and filtered through a 0.2 um PVDF filter. 0.5 mL aliquots of drug product solutions were then filled into 4 mL vials, stoppered, crimped, and placed in temperature-controlled chambers at −20° C., 4° C., and 25° C.
Furthermore, if the solutions were supersaturated at room temperature, exposure to refrigerated or frozen storage temperatures should induce precipitation and cause a decrease in assay. […] (top), 4° C. (center), and 25° C. (bottom). For each condition, data from two separate samples is plotted and is shown with a linear fit to the data.

[2] = Saturated solubility in CD/water mixtures with polymeric excipients (F6); details: 25° C., pH 5, HP-β-CD 15 mg/mL
SARS-CoV-2 = experiment: Antiviral activity in HeLa-ACE2 cells (viral protein detection); assay type: cell-based; details: Severe acute respiratory syndrome coronavirus 2, compound alone
[3] = Admixture physical stability in 0.9% w/v sodium chloride; details: 25° C.
OC43-CoV 3CLpro = OC43-CoV 3CLpro (Human coronavirus OC43, UniProt P0C6X6); experiment: FRET protease activity assay; assay type: biochemical; details: Beta-CoV; [E]T 52 ± 1 nM
OC43-CoV 3CLpro, sequence (P0C6X6 3247-3549): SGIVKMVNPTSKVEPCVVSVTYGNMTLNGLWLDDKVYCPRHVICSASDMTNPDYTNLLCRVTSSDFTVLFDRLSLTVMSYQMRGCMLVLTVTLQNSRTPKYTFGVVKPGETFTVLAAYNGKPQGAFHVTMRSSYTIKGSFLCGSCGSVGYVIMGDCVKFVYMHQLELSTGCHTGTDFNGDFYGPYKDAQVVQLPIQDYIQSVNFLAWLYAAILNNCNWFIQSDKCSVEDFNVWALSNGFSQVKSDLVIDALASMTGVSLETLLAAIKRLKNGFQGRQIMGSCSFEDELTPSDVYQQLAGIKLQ

[4] = Ethanol […] v/v, 2 mg/mL at preparation
[5] = Cytotoxicity in MRC-5 cells; details: human
MRC-5 cells = experiment: Cytotoxicity in MRC-5 cells; details: read-out: CC50 μM GeoMean; MRC-5, Efflux Inhibitor 0.5 μM
[6] = rat, dog, monkey, in vivo
Human Chymotrypsin = experiment: Protease panel; assay type: biochemical
physchem = details: organic solvent or mixture, thermodynamic from solid
NL63-CoV 3CLpro = NL63-CoV 3CLpro (Human coronavirus NL63, UniProt P0C6X5); experiment: FRET protease activity assay; assay type: biochemical; details: Alpha-CoV; [E]T 170 ± 4 nM
NL63-CoV 3CLpro, sequence (P0C6X5 2940-3242): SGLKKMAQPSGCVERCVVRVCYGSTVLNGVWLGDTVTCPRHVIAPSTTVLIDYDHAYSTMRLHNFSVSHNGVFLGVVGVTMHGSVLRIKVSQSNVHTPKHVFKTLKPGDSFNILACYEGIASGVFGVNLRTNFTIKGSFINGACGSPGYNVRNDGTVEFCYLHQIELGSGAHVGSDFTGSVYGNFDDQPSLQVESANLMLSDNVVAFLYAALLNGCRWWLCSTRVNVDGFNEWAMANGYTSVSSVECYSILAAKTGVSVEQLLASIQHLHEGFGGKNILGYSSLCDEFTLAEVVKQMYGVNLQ

[7] = Intravenous pharmacokinetics; details: rat, dog, monkey, in vivo, 2 mg/kg
[8] = ~1 mg/mL, 5% v/v co-solvent, pH 4 or 5, with or without 15 mg/mL SBE-β-CD, up to 7 days, all samples
[9] = 48 h
[10] = test system: SARS-CoV-2 Washington strain 1; experiment: Cytopathic effect (CPE) assay in VeroE6-enACE2 cells; assay type: cell-based
HKU1-CoV 3CLpro = HKU1-CoV 3CLpro (Human coronavirus HKU1, UniProt P0C6X2); experiment: FRET protease activity assay; assay type: biochemical; details: Beta-CoV; [E]T 57 ± 1 nM
HKU1-CoV 3CLpro, sequence (P0C6X2 3335-3637): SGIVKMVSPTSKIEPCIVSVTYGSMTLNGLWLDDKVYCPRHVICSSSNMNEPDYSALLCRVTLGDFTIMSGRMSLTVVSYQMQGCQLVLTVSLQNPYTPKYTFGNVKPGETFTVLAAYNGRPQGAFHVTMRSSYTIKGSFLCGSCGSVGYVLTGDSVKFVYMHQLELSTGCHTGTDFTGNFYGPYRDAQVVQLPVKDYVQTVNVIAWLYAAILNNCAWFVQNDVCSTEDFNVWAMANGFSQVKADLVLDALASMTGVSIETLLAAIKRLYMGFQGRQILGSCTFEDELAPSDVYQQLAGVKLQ

[11] = human
[12] = 2.5x dilution in 0.9% w/v sodium chloride
[13] = 10x dilution in 0.9% w/v sodium chloride

COc1cccc2[nH]c(C(=O)N[C@@H](CC(C)C)C(=O)N[C@@H](C[C@@H]3CCNC3=O)C(=O)CO)cc12 [PF-00835231]
assay values on storage at 4° C. and 25° C. (FIG. 13) [1]: consistent over the 30 day period tested
assay values on storage at −20° C. (FIG. 13) [1]: consistent over the 7 day period tested
PF-00835231 Assay ([2]; HPMC 1 mg/mL): 0.4 mg/mL
PF-00835231 Assay ([2]; PEG400 […]): 0.4 mg/mL
PF-00835231 Assay ([2]; PEG3350 […]): 0.4 mg/mL
PF-00835231 Assay ([2]; PVP […]): 0.4 mg/mL
PF-00835231 Assay ([2]; no polymeric excipient): 0.4 mg/mL
EC50 (SARS-CoV-2): 140 nM and 144 nM
EC90 (SARS-CoV-2): 400 nM and 398 nM
Assay - 0 days [3, 12]: 2.3 mg/mL and 2.2 mg/mL
Assay - 3 days [3, 12]: 2.3 mg/mL and 2.2 mg/mL
Total Impurities - 0 days [3, 12]: 1.23 % peak area and 1.20 % peak area
Total Impurities - 3 days [3, 12]: 1.38 % peak area and 1.37 % peak area
Assay - 0 days [3, 13]: 0.6 mg/mL
Assay - 3 days [3, 13]: 0.6 mg/mL
Total Impurities - 0 days [3, 13]: 1.20 % peak area
Total Impurities - 3 days [3, 13]: 1.33 % peak area
Assay - 0 days ([3]; No dilution): 5.8 mg/mL and 5.6 mg/mL
Assay - 3 days ([3]; No dilution): 5.8 mg/mL and 5.7 mg/mL
Total Impurities - 0 days ([3]; No dilution): 1.25 % peak area
Total Impurities - 3 days ([3]; No dilution): 1.44 % peak area and 1.48 % peak area
Ki (OC43-CoV 3CLpro): 0.5 ± 0.1 nM
PF-00835231 Assay ([4]; HP-β-CD 0 mg/mL, order: PF-00835231, Ethanol, Buffer): 0.4 mg/mL
PF-00835231 Assay ([4]; HP-β-CD 15 mg/mL, order: PF-00835231, Ethanol, HP-β-CD with buffer): 1.9 mg/mL
PF-00835231 Assay ([4]; HP-β-CD 15 mg/mL, order: PF-00835231, HP-β-CD with buffer, Ethanol): 0.4 mg/mL
CC50 [5]: > 100000 nM
CC50 (MRC-5 cells): > 100 µM
eliminated unchanged in the urine [6]: approximately 10%
IC50 (Human Chymotrypsin): > 100000 nM
solubility (physchem): ≥ 200 mg/mL
Ki (NL63-CoV 3CLpro): 0.8 ± 0.5 nM
half-life [7]: < 1.5 h
decrease in chromatographic purity at 22° C. [8]: less than 0.5%
PF-00835321 Solubility [9]: >45 mg/mL
EC50 ([10]; Severe acute respiratory syndrome coronavirus 2, VeroE6-enACE2 cells, in the presence of the P-gp inhibitor, quoted for the EC50/EC90 difference, read-out: EC50): 0.48 µM
EC90 ([10]; Severe acute respiratory syndrome coronavirus 2, Vero-cell lines, P-gp inhibitor added): 480 to 1600 nM
difference between EC50 and EC90 ([10]; both Vero cell types): 2-3 fold
EC50 ([10]; read-out: EC50 μM GeoMean): 0.23 µM
Ki (HKU1-CoV 3CLpro): 0.9 ± 0.2 nM
predicted half-life [11]: approximately 2 h
predicted plasma clearance (CLp) [11]: ~6 mL/min/kg
